| SMILES | melting point |
| --- | --- |
| Cc1ccc(C(=O)N[C@@H]2COc3c(C)ccc(N4CCN(C)CC4)c3C2)cc1 [Example 11, (S)-N-[8-Methyl-5-(4-methylpiperazin-1-yl)-3,4-dihydro-2H-1-benzopyran-3-yl]-4-methylbenzamide] | 191 to 192 °C |
| CN1CCN(c2ccc(C(N)=O)c3c2C[C@H](NC(=O)c2ccc(C(=O)c4ccccc4)cc2)CO3)CC1 [Example 14, (S)-N-[8-Carbamoyl-5-(4-methylpiperazin-1-yl)-3,4-dihydro-2H-1-benzopyran-3-yl]-4-benzoylbenzamide] | 259 °C (dec.) |
| COc1ccc(N2CCN(C)CC2)c2c1OCC(C(=O)Nc1ccc(N3CCOCC3)cc1)C2 (stereo not drawn) [Example 20, N-(4-Morpholinophenyl)-8-methoxy-5-(4-methylpiperazin-1-yl)-3,4-dihydro-2H-1-benzopyran-3-carboxamide] | 202 to 204 °C |

Source: US6384225B1, “Intermediates in the preparation of substituted chroman derivatives” (AstraZeneca AB, priority 1997, dated 2002)
